According to the supplement of paper PMC10307832:

Columns and labels:
Assay in all cases: relative viability (nuclei count vs DMSO), 5 days (fraction); higher = more cells survive
KN-93 + AZD7762 = compound: CN(C/C=C/C1=CC=C(C=C1)Cl)CC2=CC=CC=C2N(CCO)S(=O)(=O)C3=CC=C(C=C3)OC [KN-93] + NC(=O)Nc1cc(-c2cccc(F)c2)sc1C(=O)N[C@H]1CCCNC1 [AZD7762] (partner 0.2 µM)
Summary of the method: (§1)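 Nuclei were stained with Hoechst during a one-step fixation (final 0.05% Triton X-100, 1% formaldehyde, 1 ug/ml Hoechst) carried out 5 days after dosing, then counted on 4× images. The cells, lung cancer lines in 1536-well plates, had been dosed by pin tool the day after seeding with one drug alone or a fixed anchor-drug dose plus five library-drug doses (not always all listed) in √10 steps. Relative viability is the nuclei count in treated wells divided by that in vehicle wells, and each value is the median of duplicate plates.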

KN-93 + Dasatinib = compound: CN(C/C=C/C1=CC=C(C=C1)Cl)CC2=CC=CC=C2N(CCO)S(=O)(=O)C3=CC=C(C=C3)OC [KN-93] + Cc1nc(Nc2ncc(C(=O)Nc3c(C)cccc3Cl)s2)cc(N2CCN(CCO)CC2)n1 [Dasatinib] (partner 0.075 µM)
Summary of the method: as §1

KN-93 + Lapatinib = compound: CN(C/C=C/C1=CC=C(C=C1)Cl)CC2=CC=CC=C2N(CCO)S(=O)(=O)C3=CC=C(C=C3)OC [KN-93] + CS(=O)(=O)CCNCc1ccc(-c2ccc3ncnc(Nc4ccc(OCc5cccc(F)c5)c(Cl)c4)c3c2)o1 [Lapatinib] (partner 2 µM)
Summary of the method: as §1

KN-93 + Phenformin = compound: CN(C/C=C/C1=CC=C(C=C1)Cl)CC2=CC=CC=C2N(CCO)S(=O)(=O)C3=CC=C(C=C3)OC [KN-93] + N=C(N)NC(=N)NCCc1ccccc1 [Phenformin] (partner 250 µM)
Summary of the method: as §1

KN-93 + Alpelisib = compound: CN(C/C=C/C1=CC=C(C=C1)Cl)CC2=CC=CC=C2N(CCO)S(=O)(=O)C3=CC=C(C=C3)OC [KN-93] + Cc1nc(NC(=O)N2CCC[C@H]2C(N)=O)sc1-c1ccnc(C(C)(C)C(F)(F)F)c1 [Alpelisib] (partner 2 µM)
Summary of the method: as §1

Cell Line	relative viability (KN-93 + AZD7762; first compound 0.08 µM)	relative viability (KN-93 + AZD7762; first compound 0.253 µM)	relative viability (KN-93 + AZD7762; first compound 2.53 µM)	relative viability (KN-93 + AZD7762; first compound 8 µM)	relative viability (KN-93 + Dasatinib; first compound 0.08 µM)	relative viability (KN-93 + Dasatinib; first compound 0.253 µM)	relative viability (KN-93 + Dasatinib; first compound 2.53 µM)	relative viability (KN-93 + Dasatinib; first compound 8 µM)	relative viability (KN-93 + Lapatinib; first compound 0.08 µM)	relative viability (KN-93 + Lapatinib; first compound 2.53 µM)	relative viability (KN-93 + Lapatinib; first compound 8 µM)	relative viability (KN-93 + Phenformin; first compound 0.08 µM)	relative viability (KN-93 + Phenformin; first compound 0.253 µM)	relative viability (KN-93 + Phenformin; first compound 2.53 µM)	relative viability (KN-93 + Phenformin; first compound 8 µM)	relative viability (KN-93 + Alpelisib; first compound 0.08 µM)	relative viability (KN-93 + Alpelisib; first compound 2.53 µM)	relative viability (KN-93 + Alpelisib; first compound 8 µM)	relative viability (KN-93 + Lapatinib; first compound 0.253 µM)	relative viability (KN-93 + Alpelisib; first compound 0.253 µM)
LCLC-97TM1	0.289	0.279	0.198	0.224	0.753	0.955	0.814	0.63	1.06	1.12	0.425	0.418	0.494	0.488	0.407	0.282	0.217	0.206	–	–
LK-2	0.419	0.366	0.428	0.3	0.248	0.315	0.288	0.417	0.972	1.02	0.862	0.505	0.398	0.341	0.233	0.905	1.32	0.673	1.26	1.51
LOU-NH91	0.731	0.659	0.802	0.623	0.504	0.532	0.604	0.458	0.761	0.886	0.692	0.667	0.614	0.8	0.628	0.716	0.756	0.64	0.575	0.647
LU99A	0.31	0.323	0.38	0.336	0.479	0.59	0.419	0.406	1.16	0.797	0.89	0.91	0.88	0.774	0.676	0.525	0.557	0.39	1.21	0.636
LXF-289	0.813	1.15	1.18	0.978	0.238	0.197	0.229	0.141	0.845	1	0.737	0.515	0.568	0.597	0.504	0.974	1.11	0.705	0.934	1.11
NCI-H23	0.286	0.214	0.235	0.106	0.64	0.84	0.818	0.439	1.05	1.31	0.883	0.705	0.889	0.88	0.609	0.592	1.01	0.596	1.1	0.702
NCI-H322M	0.549	0.53	0.555	0.51	0.256	0.25	0.26	0.204	0.605	0.61	0.566	0.753	0.746	0.838	0.604	0.873	0.836	0.686	0.633	1.06
NCI-H358	0.474	0.473	0.465	0.424	0.182	0.168	0.15	0.148	0.49	0.444	0.291	0.32	0.444	0.384	0.251	0.843	0.72	0.319	0.528	0.992
NCI-H460	0.563	0.556	0.731	0.328	0.489	0.526	0.726	0.35	0.302	1.12	0.45	0.299	0.565	0.552	0.396	0.47	0.42	0.203	1.27	0.649
NCI-H596	1	1.08	1.11	0.845	0.607	0.642	0.587	0.421	1.05	1.23	0.985	0.728	0.95	0.69	0.45	0.442	0.51	0.334	0.945	0.459
NCI-H647	0.398	0.557	0.447	0.381	0.161	0.216	0.253	0.164	0.836	1.26	0.819	0.696	0.552	0.643	0.484	1.39	1.32	0.717	1.07	1.52
NCI-H650	0.984	0.996	1.23	0.978	0.465	0.526	0.417	0.355	1.19	1.29	0.615	0.481	0.47	0.449	0.414	1.04	1.04	0.65	1.04	1.34
NCI-H727	0.643	–	0.627	0.471	0.44	0.399	0.415	0.237	0.776	0.802	0.486	0.576	0.601	0.814	0.533	0.466	0.563	0.378	0.762	0.525
NCI-H838	0.842	0.884	0.992	0.831	0.32	0.236	0.334	0.239	0.903	1.12	0.746	0.648	0.565	0.596	0.547	0.989	1.09	0.887	0.78	0.911
NCI-H1355	0.822	0.694	0.826	0.703	0.588	0.551	0.695	0.503	0.954	1.05	0.913	0.497	0.456	0.438	0.427	0.731	0.946	0.697	0.79	0.719
